Tests used:
[1] = molecular target: 5HT2B serotonergic receptor (Homo sapiens, UniProt P41595); assay: PDSP radioligand binding, 5HT2B; settings: full concentration-response curves, n = 3-6 unless noted
[2] = molecular target: T1, 5HT2C serotonergic receptor (Homo sapiens, UniProt P28335); assay: PDSP radioligand binding, 5HT2C; settings: full concentration-response curves, n = 3-6 unless noted
T1 sequence (P28335 33-458): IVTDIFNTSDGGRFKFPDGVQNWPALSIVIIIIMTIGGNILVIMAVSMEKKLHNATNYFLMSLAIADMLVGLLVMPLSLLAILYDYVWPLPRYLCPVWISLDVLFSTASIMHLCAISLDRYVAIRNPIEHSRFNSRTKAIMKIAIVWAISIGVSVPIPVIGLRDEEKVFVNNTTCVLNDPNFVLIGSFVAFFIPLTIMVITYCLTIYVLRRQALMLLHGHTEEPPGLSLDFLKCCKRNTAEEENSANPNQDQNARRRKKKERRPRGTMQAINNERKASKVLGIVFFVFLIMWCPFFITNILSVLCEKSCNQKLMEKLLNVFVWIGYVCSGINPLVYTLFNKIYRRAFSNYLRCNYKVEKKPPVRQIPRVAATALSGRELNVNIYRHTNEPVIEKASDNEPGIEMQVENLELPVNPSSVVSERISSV

[3] = system: 41 diverse receptors, channels and a transporter; assay: PDSP broad screen: summary of off-target interactions; settings: besides 5HT2B and 5HT2C
sigma (σ) receptors = settings: cited from earlier work
[4] = system: peripheral cholecystokinin receptors; settings: cited from earlier work

5HT2B serotonergic receptor, sequence (P41595 whole entry): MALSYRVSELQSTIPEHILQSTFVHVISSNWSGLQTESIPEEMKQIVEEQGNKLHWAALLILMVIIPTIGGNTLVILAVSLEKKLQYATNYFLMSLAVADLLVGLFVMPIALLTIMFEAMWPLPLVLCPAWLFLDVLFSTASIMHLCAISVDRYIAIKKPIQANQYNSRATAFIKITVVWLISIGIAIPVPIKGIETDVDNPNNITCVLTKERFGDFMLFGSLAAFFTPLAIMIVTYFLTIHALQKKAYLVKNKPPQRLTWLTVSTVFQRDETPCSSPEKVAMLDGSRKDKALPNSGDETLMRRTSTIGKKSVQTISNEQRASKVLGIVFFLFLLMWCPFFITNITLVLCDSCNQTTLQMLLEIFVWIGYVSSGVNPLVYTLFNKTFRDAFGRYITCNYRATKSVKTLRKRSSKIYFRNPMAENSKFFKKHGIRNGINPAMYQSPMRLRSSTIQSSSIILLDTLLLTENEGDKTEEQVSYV

CNC(=O)[C@H]1O[C@@H](n2cnc3c(NCc4cccc(I)c4)ncnc32)[C@H](O)[C@@H]1O [IB-MECA, N ^6-(3-iodobenzyl)-5′-N-methylcarboxamidoadenosine]
Ki [1]: 1.08 µM | Ki [2]: 5.42 µM | other off-target interactions in pharmacological screening [3]: no other off-target interactions | binding inhibition at 10 µM (sigma (σ) receptors): 50–70% | binding inhibition at 10 µM [4]: 50–70%
